From patent US7867983B2, “Methods to protect skeletal muscle against injury” (The University of Connecticut, priority 2007, dated 2011)

Tests used:
[1] = test system: skeletal muscle ischemia/reperfusion injury; experiment: Mouse hindlimb ischemia and reperfusion model, Evans Blue dye staining of gastrocnemius muscle, wild-type mice; assay type: in vivo, mouse (C57BL6 wild-type); conditions: WT mice; for EBD-positive area: ligand alone i.p. 2 h before 90 min ischemia, PBS vehicle 28%±6%; for EBD-positive area, agonist plus DPCPX: A1 antagonist DPCPX 0.2 mg/kg i.p. 30 min before agonist; for EBD-positive area, agonist plus MRS1191: A3 antagonist MRS1191 0.05 mg/kg i.p. 30 min before agonist
Description: Mouse Hindlimb Ischemia and Reperfusion Model: After 2.5- to 3-month-old wild-type (WT; C57BL6 strain) or PLC β2/β3 knockout mice (in C57BL6 background), each weighing about 23-25 g, were sedated with anesthetic (pentobarbital 50 mg/kg was given by intraperitoneal [i.p.] injection), their right or left hindlimbs (used randomly) were elevated briefly to minimize retained blood before being subjected to ischemia. Ischemia was induced by placement of a constrictor band (Latex O-Rings, Miltex Instruments, York, Pa.) above the greater trochanter with a McGiveney Hemorrhoidal Ligator (7 in long; Miltex). After 90 minutes of warm ischemia at 37° C., the constrictor was removed to allow reperfusion for 24 hours. The mice were continuously maintained on a 37° C. warming pad (Physitemp Instruments Inc, Clifton, N.J.) during the reperfusion. After the mice were killed by anesthetic overdose, the gastrocnemius muscle was quickly frozen, cut into three slices separated by 2-3 mm, and embedded in Shandon Cryomatrix (polyvinyl alcohol 10%, polyethylene glycol 4%; Anatomical Pathology U.S.A., Pittsburgh, Pa.). Each slice was processed as one 10 μm section on a Thermo Electron/Shandon Cryotome (Anatomical Pathology), fixed in ice-cold acetone, air dried, and washed in phosphate-buffered saline (PBS). Each 10 μm section had seven fields. Gastrocnemius was used because of its high proportion of fast-twitch muscle, which is prone to ischemia and reperfusion injury.
Quantification of Skeletal Muscle Injury: Evans Blue dye (EBD), prepared as a 1% wt/vol solution to yielding 1 mg of EBD/10 g body weight), was given via a separate i.p. injection 2.5 hours before the induction of ischemia. EBD stained only injured muscle and EBD-positive cells were quantified. The percent EBD-positive cells in each field was averaged with those from all seven fields within one 10 μm section. The averaged fraction of EBD-positive cells in each 10 μm section was similar among the three sections. Each 10 μm section was also stained with rabbit polyclonal anti-skeletal muscle actin antibodies (ab15265; Abcam Inc, Cambridge, Mass.) and goat polyclonal anti-rabbit IgG conjugated with fluorescein isothiocyanate. Sections were mounted, and their cross sections were viewed with fluorescent microscopy (Evans Blue dye [EBD]-positive cells via a DM580 band pass filter 510-560 nm with emission of 590 nm; fluorescein isothiocyanate cells via a DM510 filter of 450-490 nm with emission at 520 nm). Each field was counted at 20× magnification and their images captured via the two filters for quantification of muscle injury as follows. Images were acquired and stored as JPEG files with a Macrofire camera (Macrofire 1.0, Optronics, Goleta, Calif.). The ImageProPlus Program (version 5.0, Media Cybernetics, Inc, Silver Spring, Md.) was used for the quantitative determination. The percentage of EBD-positive areas was calculated by dividing the area of EBD staining by the total muscle cells, a quantity defined as the total area stained by anti-skeletal muscle actin antibodies and was identical to the total area in each field minus the area not occupied by any cell. The actin-stained area included EBD-positive area, as shown in superimposed EBD- and actin antibody-stained images. Serum creatine kinase (CK) activity was measured with a previously described procedure. The fraction of skeletal muscle staining positive for EBD represented a direct determination of the muscle that was injured, and the serum CK level provided a circulating index of the extent of skeletal muscle injury. Both are established and accepted methods to quantify skeletal muscle injury.
Protocol for Administration of Adenosine Receptor Agonist and Antagonist. […]

[2] = test system: exercise-induced skeletal muscle injury; experiment: 15% downhill treadmill exercise-induced skeletal muscle injury, beta-sarcoglycan-null mice (limb-girdle muscular dystrophy model); assay type: in vivo, mouse (beta-sarcoglycan-null); conditions: beta-sarcoglycan-null mice treated, then exercised
From the text: (§1) Wild type (WT), beta-sarcoglycan-deficient, and PLCβ2/β3-null mice were all 8-10 weeks old and have similar body weights. Beta-sarcoglycan-null mice have been developed as a mouse model of limb-girdle muscular dystrophy. PLCβ2/β3-null mice have been used as a model to determine the physiologic role of these enzyme isoforms in mediating the effect of various adenosine receptor subtypes. The 15% downhill treadmill exercise is an established method to cause exertion-related skeletal muscle injury in rodents and has been used to gauge the success of therapy aimed at reducing skeletal muscle injury in mouse models of muscular dystrophy. Mice were exercised to exhaustion and for similar amount of time. […] Thus, only serum CK activity was used to quantify the extent of skeletal muscle injury in these normal WT mice. In the beta-sarcoglycan-null mice, there was already a significant level of skeletal muscle damage at baseline (in the absence of imposed physical exercise, EBD-positive area was 9.7±2.0%, n=28 mice, SE; serum CK was 2363±310, U/L, n=30 mice, SE). Both EBD staining and serum CK were used to quantify the extent of skeletal muscle injury.
Beta-sarcoglycan-null mice were used as a model of Limb-Girdle Muscular Dystrophy. […] The extent of skeletal muscle injury was determined by (FIG. 10) serum CK level and (FIG. 11) percentage of EBD-stained area. […]

[3] = test system: exercise-induced skeletal muscle injury; experiment: 15% downhill treadmill exercise-induced skeletal muscle injury, PLCβ2/β3-null mice; assay type: in vivo, mouse (PLCβ2/β3-null); conditions: PLCβ2/β3-null mice treated, then exercised; P>0.1 vs PBS
From the text: as §1
PLCβ2/β3-null mice were used as a model to determine the role of PLCβ2/β3 in mediating the protective effect on exercise-induced injury by Cl-IBMECA. […] Serum CK levels were used to quantify the extent of skeletal muscle injury. […]

[4] = test system: exercise-induced skeletal muscle injury; experiment: 15% downhill treadmill exercise-induced skeletal muscle injury, wild-type mice; assay type: in vivo, mouse (wild type); conditions: wild-type mice injected with agonist, then exercised; P<0.05 vs vehicle
From the text: as §1
Adult wild-type mice were injected with the A3 receptor agonist Cl-IBMECA. They were then subjected to exercise, and their skeletal muscle injuries were quantified using serum CK was used as a marker of muscle injury. […]

[5] = test system: skeletal muscle ischemia/reperfusion injury; experiment: Mouse hindlimb ischemia and reperfusion model, Evans Blue dye staining, PLC β2/β3-null mice; assay type: in vivo; conditions: agonist alone i.p. before ischemia/reperfusion, mean±SE, PBS 23.4%±4%
Description: Mouse Hindlimb Ischemia and Reperfusion Model: After 2.5- to 3-month-old wild-type (WT; C57BL6 strain) or PLC β2/β3 knockout mice (in C57BL6 background), each weighing about 23-25 g, were sedated with anesthetic (pentobarbital 50 mg/kg was given by intraperitoneal [i.p.] injection), their right or left hindlimbs (used randomly) were elevated briefly to minimize retained blood before being subjected to ischemia. Ischemia was induced by placement of a constrictor band (Latex O-Rings, Miltex Instruments, York, Pa.) above the greater trochanter with a McGiveney Hemorrhoidal Ligator (7 in long; Miltex). After 90 minutes of warm ischemia at 37° C., the constrictor was removed to allow reperfusion for 24 hours. The mice were continuously maintained on a 37° C. warming pad (Physitemp Instruments Inc, Clifton, N.J.) during the reperfusion. […]
Quantification of Skeletal Muscle Injury: Evans Blue dye (EBD), prepared as a 1% wt/vol solution to yielding 1 mg of EBD/10 g body weight), was given via a separate i.p. injection 2.5 hours before the induction of ischemia. EBD stained only injured muscle and EBD-positive cells were quantified. […] Each field was counted at 20× magnification and their images captured via the two filters for quantification of muscle injury as follows. […] The ImageProPlus Program (version 5.0, Media Cybernetics, Inc, Silver Spring, Md.) was used for the quantitative determination. The percentage of EBD-positive areas was calculated by dividing the area of EBD staining by the total muscle cells, a quantity defined as the total area stained by anti-skeletal muscle actin antibodies and was identical to the total area in each field minus the area not occupied by any cell. […] Serum creatine kinase (CK) activity was measured with a previously described procedure. […] Both are established and accepted methods to quantify skeletal muscle injury. […]

[6] = 90 min ischemia, 24 h reperfusion, mean±SE

Row | Compound | EBD-positive area ([1]; 24 h reperfusion, mean±SE) | EBD-positive area [5] | EBD-positive area, agonist plus DPCPX [1, 6] | EBD-positive area, agonist plus MRS1191 [1, 6] | further results
1 | CCCn1c(=O)c2[nH]c(C3CCCC3)nc2n(CCC)c1=O [DPCPX] | 19.3%±4.4% |  |  |  | 
2 | CNC(=O)[C@H]1O[C@@H](n2cnc3c(NCc4cccc(I)c4)nc(Cl)nc32)[C@H](O)[C@@H]1O [Cl-IBMECA, 2-chloro-N^6-(3-iodobenzyl)adenosine-5′-N-methyluronamide] | 5.4%±2.6% | 22%±3.6% | 4%±1.6% | 21.5%±3.5% | serum CK level vs. vehicle after exercise ([2]; P=0.0066 vs vehicle): reduction in the serum CK level; percentage of EBD-positive area vs. vehicle after exercise ([2]; P=0.03 vs vehicle): reduced the percentage of EBD-positive area; serum CK level vs. PBS after exercise [3]: unable to induce a reduction in the serum CK level; serum CK vs. vehicle after exercise [4]: reduction in the serum CK
3 | OC[C@H]1O[C@@H](n2cnc3c(NC4CCCC4)nc(Cl)nc32)[C@H](O)[C@@H]1O [CCPA, 2-chloro-N^6-cyclopentyladenosine] | 10.8%±2% | 8.5%±2.5% | 22%±3.3% | 12.2%±2.4% | 
4 | CCOC(=O)C1=C(C)NC(c2ccccc2)=C(C(=O)OCc2ccccc2)C1C#Cc1ccccc1 (racemic) [MRS1191, 3-ethyl 5-benzyl-2-methyl-6-phenyl-4-phenylethynyl-1,4-(±)-dihydropyridine-3,5-dicarboxylate] | 23%±4.4% |  |  |  | 
5 | CCNC(=O)[C@H]1O[C@@H](n2cnc3c(N)nc(NCCc4ccc(CCC(=O)O)cc4)nc32)[C@H](O)[C@@H]1O [CGS21680, 2-p-(2-Carboxyethyl)phenethylamino-5′-N-ethylcarboxamidoadenosine] | 6.6%±3.5% | 4%±1.1% | 14.7%±2.3% | 2.4%±1.25% | EBD-positive area, agonist plus SCH 442416 ([1]; A2A antagonist SCH 442416 0.017 mg/kg i.p. 30 min before agonist, 90 min ischemia, 24 h reperfusion, mean±SE): 26%±4%
6 | C[C@H](Cc1ccccc1)Nc1ncnc2c1ncn2[C@@H]1O[C@H](CO)[C@@H](O)[C@H]1O [R-PIA] |  |  |  |  | extent of injury (EBD staining), result in words ([1]; given prior to ischemia and reperfusion, 0.05 mg/kg i.p.): significant reduction in the extent of injury
